Experimental findings from the supplement of paper PMC11061612 are described below.

Holding throughout (assay): Bliss excess, mean over the matrix (fraction); higher = more synergy
For one test, the system named is H4 (Low Grade Glioma). In short, it runs like this: (§1)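 Cell lines in DMEM/F12 or RPMI with 10% FBS were plated in 1536-well plates, held 24 hours at 37°C, 5% CO2, then given two-drug dose matrices for 72 hours (DMSO typically 0.2%). Viability was read by CellTiter-Glo 2.0 luminescence and scaled as inhibition from 0 (vehicle wells) to 1 (blank wells). Combination Emax is the second-highest inhibition in the matrix; Bliss excess is observed combination effect minus expected EA + EB − EA·EB, EA and EB being single-agent effects.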

The test system of test [1] is SK-LMS-1 (Other Solid Carcinomas). In short, it runs like this:
as §1

A further test deals with MCF7 (Breast Carcinoma). In short, it runs like this:
as §1

For another test, the system named is D-392MG (Glioblastoma). Put shortly: as §1
A further test deals with Saos-2 (Osteosarcoma). In short, it runs like this: as §1
In test [2] the test system is D-283MED (Other Solid Carcinomas). Put shortly:
as §1

The test system of test [3] is HLE (Hepatocellular Carcinoma). Put shortly: as §1
For test [4], the system named is MES-SA (Other Solid Carcinomas). In short, it runs like this: as §1
Test [5] deals with SW48 (Colorectal Carcinoma). Put shortly:
as §1

The subject of test [6] is TYK-nu (Ovarian Carcinoma). In short, it runs like this:
as §1

Another test deals with MSTO-211H (Mesothelioma). In short, it runs like this:
as §1

In test [7] the test system is HCC1143 (Breast Carcinoma). In short, it runs like this: as §1
Test [8] relates to SKN-3 (Head and Neck Carcinoma). In short, it runs like this: as §1
Test [9] has as its system SW948 (Colorectal Carcinoma). Put shortly: as §1
Another test has as its system HCC38 (Breast Carcinoma). Put shortly:
as §1

Test [10] deals with HCC-827 (Lung Adenocarcinoma). Put shortly: as §1
The subject of a further test is CS1 (Chondrosarcoma). In short, it runs like this:
as §1

Test [11] has as its system SNG-M (Endometrial Carcinoma). Put shortly:
as §1

The subject of test [12] is P31-FUJ (Acute Myeloid Leukemia). Put shortly:
as §1

In the next test the test system is HuO9 (Osteosarcoma). Put shortly: as §1

Structures are written as SMILES.

As to `NC1(C(=O)N[C@@H](CCO)c2ccc(Cl)cc2)CCN(c2ncnc3[nH]ccc23)CC1` [Capivasertib] + CC(C)n1c(=O)n(C)c2cnc3cc(F)c(-c4ccc(OCCCN5CCCCC5)nc4)cc3c21 [AZD1390] (first compound max 10 µM, 7x7, partner max 0.3 µM), the Bliss excess was -0.0638 in the test on H4 (Low Grade Glioma); -0.045 in [1]; -0.11 in the test on MCF7 (Breast Carcinoma); -0.0645 with D-392MG (Glioblastoma); -0.0063 in the test on Saos-2 (Osteosarcoma); -0.0009 in test [2]. Besides, the Bliss excess was -0.0323 in [3]; -0.0275 in [4]; -0.0345 in [5]; -0.116 in test [6]; -0.0905 with MSTO-211H (Mesothelioma); -0.0661 in test [7]. For the same compound, the Bliss excess in test [8] is -0.0849; in [9], -0.0943; in the test with HCC38 (Breast Carcinoma) it was -0.0314; in test [10] it was -0.0793; in the test on CS1 (Chondrosarcoma) it was -0.0698; in test [11] it was -0.0484. For the same compound, the Bliss excess in test [12] is -0.169; in the test with HuO9 (Osteosarcoma), -0.0009.
Take `NC1(C(=O)N[C@@H](CCO)c2ccc(Cl)cc2)CCN(c2ncnc3[nH]ccc23)CC1` [Capivasertib] + CCN(CCO)CCCOc1ccc2c(Nc3cc(CC(=O)Nc4cccc(F)c4)[nH]n3)ncnc2c1 [AZD2811] (first compound max 10 µM, 7x7, partner max 1 µM): the Bliss excess in the test on H4 (Low Grade Glioma) was -0.0124; in test [1], -0.0055; in the test on MCF7 (Breast Carcinoma), 0.0943; with D-392MG (Glioblastoma), -0.0265; in the test on Saos-2 (Osteosarcoma), -0.0757; in test [2], 0.0666. For the same compound, the Bliss excess was 0.0121 in test [3]; 0.0165 in test [4]; 0.0146 in [5]; -0.0351 in test [6]; -0.0073 in the test with MSTO-211H (Mesothelioma); 0.0137 in test [7]. Besides, the Bliss excess in [8] was -0.0524; in test [9], -0.0161; with HCC38 (Breast Carcinoma), 0.0054; in test [10], -0.0428; with CS1 (Chondrosarcoma) it was -0.0211; in [11], -0.012. Moreover, the figures for the Bliss excess (in test [12]; with HuO9 (Osteosarcoma)) were -0.0663 and 0.0135, respectively.
On to `NC1(C(=O)N[C@@H](CCO)c2ccc(Cl)cc2)CCN(c2ncnc3[nH]ccc23)CC1` [Capivasertib] + COc1nnc2ccc(N3CCC(c4ccc(OCCN5CCN(C)C(=O)[C@H]5C)cc4)CC3)nn12 [AZD5153] (first compound max 10 µM, 7x7, partner max 1 µM), for which the Bliss excess in the test on H4 (Low Grade Glioma) was -0.0057; in test [1], 0.0014; in the test with MCF7 (Breast Carcinoma) it was -0.0413; in the test on D-392MG (Glioblastoma) it was -0.015; in the test with Saos-2 (Osteosarcoma), -0.0028; in test [2], -0.0185. Also, the Bliss excess was -0.0096 in test [3]; 0.0276 in [4]; -0.0226 in test [5]; 0.0114 in test [6]; 0.0056 in the test on MSTO-211H (Mesothelioma); -0.0035 in test [7]. Further, the Bliss excess in test [8] is 0.0027; in test [9] it was -0.0082; in the test with HCC38 (Breast Carcinoma) it was -0.022; in [10], 0.0472; with CS1 (Chondrosarcoma), 0.0057; in [11], 0.0787. The Bliss excess is 0.0066 in test [12] and -0.0142 in the test with HuO9 (Osteosarcoma).
For `NC1(C(=O)N[C@@H](CCO)c2ccc(Cl)cc2)CCN(c2ncnc3[nH]ccc23)CC1` [Capivasertib] + C[C@@H]1COCCN1C2=NC(=NC(=C2)C3(CC3)[S@](=N)(=O)C)C4=C5C=CNC5=NC=C4 [AZD6738] (first compound max 10 µM, 7x7, partner max 10 µM), the Bliss excess is -0.0667 in the test with H4 (Low Grade Glioma); 0.0094 in [1]; -0.0707 in the test on MCF7 (Breast Carcinoma); -0.0393 in the test on D-392MG (Glioblastoma); -0.0717 in the test with Saos-2 (Osteosarcoma); -0.0048 in test [2]. Also, the Bliss excess is -0.038 in [3]; -0.0719 in test [4]; -0.0387 in test [5]; -0.109 in test [6]; -0.0088 in the test with MSTO-211H (Mesothelioma); -0.105 in [7]. Besides, the Bliss excess was -0.0564 in test [8]; -0.102 in test [9]; -0.0366 with HCC38 (Breast Carcinoma); -0.0421 in test [10]; -0.0517 in the test with CS1 (Chondrosarcoma); -0.0984 in [11]. Moreover, the Bliss excess in [12] is -0.145; in the test with HuO9 (Osteosarcoma) it was -0.0535.
With `NC1(C(=O)N[C@@H](CCO)c2ccc(Cl)cc2)CCN(c2ncnc3[nH]ccc23)CC1` [Capivasertib] + Cn1cnc2c(F)c(Nc3ccc(Br)cc3Cl)c(C(=O)NOCCO)cc21 [Selumetinib] (first compound max 10 µM, 7x7, partner max 10 µM), the Bliss excess is -0.0307 with H4 (Low Grade Glioma); 0.0883 in test [1]; -0.0332 with MCF7 (Breast Carcinoma); -0.0202 with D-392MG (Glioblastoma); 0.0087 in the test on Saos-2 (Osteosarcoma); 0.0855 in test [2]. The Bliss excess in [3] is 0.0365; in [4] it was -0.0017; in test [5], -0.0453; in [6] it was 0.0219; with MSTO-211H (Mesothelioma), 0.0663; in test [7], -0.0014. The Bliss excess in test [8] is -0.0759; in [9], -0.0554; with HCC38 (Breast Carcinoma), 0.0116; in [10], 0.04; in the test with CS1 (Chondrosarcoma), 0.0373; in test [11] it was 0.0648. Further, the results for the Bliss excess (in test [12]; in the test on HuO9 (Osteosarcoma)) were 0.0376 and -0.0116, respectively.
With `Cc1nc(Nc2ncc(C(=O)Nc3c(C)cccc3Cl)s2)cc(N2CCN(CCO)CC2)n1` [Dasatinib] + CC(=O)Nc1cccc(-n2c(=O)n(C3CC3)c(=O)c3c(Nc4ccc(I)cc4F)n(C)c(=O)c(C)c32)c1 [Trametinib] (first compound max 2 µM, 7x7, partner max 1 µM), the Bliss excess in the test on H4 (Low Grade Glioma) is -0.0488; in test [1] it was -0.0457; in the test on MCF7 (Breast Carcinoma) it was -0.0601; in the test on D-392MG (Glioblastoma), 0.0155; in the test with Saos-2 (Osteosarcoma), 0.0164; in [2] it was -0.0475. For the same compound, the Bliss excess in test [3] was 0.0283; in [4], -0.0311; in [5] it was 0.225; in test [6], 0.0895; in the test with MSTO-211H (Mesothelioma), -0.001; in test [7], 0.0293. For the same compound, the Bliss excess in [8] is 0.004; in test [9], -0.008; with HCC38 (Breast Carcinoma), -0.0277; in test [10], -0.0114; with CS1 (Chondrosarcoma), -0.022; in test [11], -0.0097. The results for the Bliss excess (in [12]; in the test with HuO9 (Osteosarcoma)) were 0.108 and 0.0175, respectively.
In the case of `COc1cccc2c1C(=O)c1c(O)c3c(c(O)c1C2=O)C[C@@](O)(C(=O)CO)C[C@@H]3O[C@H]1C[C@H](N)[C@H](O)[C@H](C)O1` [Doxorubicin] + Cc1cc2ncnn2cc1Nc1ncc2c(n1)n(C1CCOCC1)c(=O)n2C [AZD7648] (first compound max 1 µM, 7x7, partner max 10 µM), the Bliss excess in the test on H4 (Low Grade Glioma) came out at 0.0066; in test [1], 0.0633; in the test on MCF7 (Breast Carcinoma) it was 0.058; in the test on D-392MG (Glioblastoma), 0.0458; with Saos-2 (Osteosarcoma), 0.0415; in test [2], 0.0461. For the same compound, the Bliss excess in test [3] came to 0.0309; in [4] it was 0.0696; in test [5], 0.0535; in [6], 0.0591; in the test on MSTO-211H (Mesothelioma) it was 0.115; in test [7], 0.0202. For the same compound, the Bliss excess was determined as 0.0045 in test [8]; 0.0438 in test [9]; 0.0206 with HCC38 (Breast Carcinoma); 0.0178 in [10]; 0.0851 in the test with CS1 (Chondrosarcoma); 0.0194 in [11]. Besides, the Bliss excess came out at 0.108 in test [12] and 0.0731 in the test with HuO9 (Osteosarcoma).
